Like-named read-outs stand apart in the source and are kept apart here.
Molecular target: alanyl aminopeptidases (APN) (Homo sapiens, UniProt P15144)
Experiment: Inhibition of alanyl aminopeptidase enzymatic activity, fluorogenic substrate (Ala)2-rhodamine 110
Assay type: biochemical
Method: The inhibition characteristics measured are referred to as IC-50 values or ID50 values (the latter marked with “*”) for said enzyme. The enzymatic activity was determined by means of the fluorogenic substrate/product (Ala)2-rhodamine 110.

[1] = Table 3, starred values = ID50, read-out: ID50 APN (values marked with *)
[2] = Table 4, unstarred values, read-out: IC50APN

Chain of alanyl aminopeptidases (APN) (P15144 whole entry, species assumed): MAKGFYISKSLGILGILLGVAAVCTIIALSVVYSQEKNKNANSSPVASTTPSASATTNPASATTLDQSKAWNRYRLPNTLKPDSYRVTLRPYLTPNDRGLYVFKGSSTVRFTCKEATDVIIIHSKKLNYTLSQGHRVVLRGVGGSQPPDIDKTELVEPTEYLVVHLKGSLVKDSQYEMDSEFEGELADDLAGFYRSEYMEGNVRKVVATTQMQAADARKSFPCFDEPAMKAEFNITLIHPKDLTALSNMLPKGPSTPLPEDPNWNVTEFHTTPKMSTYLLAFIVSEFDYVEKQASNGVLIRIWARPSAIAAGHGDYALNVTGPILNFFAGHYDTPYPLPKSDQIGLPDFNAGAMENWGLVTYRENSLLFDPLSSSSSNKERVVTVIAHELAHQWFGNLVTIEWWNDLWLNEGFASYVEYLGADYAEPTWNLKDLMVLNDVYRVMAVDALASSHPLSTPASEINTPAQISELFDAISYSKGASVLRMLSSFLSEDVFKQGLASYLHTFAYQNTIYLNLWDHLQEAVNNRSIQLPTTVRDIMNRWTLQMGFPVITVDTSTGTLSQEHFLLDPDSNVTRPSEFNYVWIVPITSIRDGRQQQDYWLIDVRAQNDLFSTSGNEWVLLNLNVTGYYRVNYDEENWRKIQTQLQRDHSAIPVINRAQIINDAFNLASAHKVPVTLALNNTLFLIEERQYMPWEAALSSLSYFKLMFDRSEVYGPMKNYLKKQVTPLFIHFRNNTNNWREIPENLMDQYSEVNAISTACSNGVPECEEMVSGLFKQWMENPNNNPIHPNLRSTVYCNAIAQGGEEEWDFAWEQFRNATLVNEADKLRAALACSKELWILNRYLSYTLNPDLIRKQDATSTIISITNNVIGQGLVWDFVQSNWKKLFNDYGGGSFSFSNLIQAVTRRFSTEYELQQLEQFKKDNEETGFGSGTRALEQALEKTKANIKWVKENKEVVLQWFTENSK

SMILES | IC50 [1] [µM] | IC50 [2] [µM]
COc1ccc(C2C(C(=O)c3ccccc3)C(c3ccccc3)C(C(=O)NCc3ccc(F)cc3)N2C(=O)NC2CCCCC2)cc1 (stereo not drawn) [A3.342] | 231 | 
C/C(=C\c1ccc(C(C)C)cc1)C1NCC(c2ccc([N+](=O)[O-])cc2)O1 (stereo not drawn) [A3.345] | 293 | 
O=C(N/N=C/c1ccco1)c1ccc(NCc2ccccc2)cc1 [A3.346] | 294 | 
O=C(N/N=C/c1ccco1)c1ccc([N+](=O)[O-])cc1 [A3.347] | 305 | 
CC(C)(C)c1ccc2c(c1)C1c3ccc(C(C)(C)C)cc3C2C2C(=O)N(c3cccc(Cl)c3)C(=O)C12 (stereo not drawn) [A3.348] | 321 | 
C/C(=N\NC(=O)c1ccn(C)n1)c1ccco1 [A3.349] | 323 | 
CCc1ccc(N2C(=O)C3C(c4cccc(Cl)c4)OC4(C(=O)c5ccccc5C4=O)C3C2=O)cc1 (stereo not drawn) [A3.350] | 336 | 
C/C(=N\NC(=O)COc1ccc(C)cc1[N+](=O)[O-])c1ccco1 [A3.351] | 422 | 
CCOc1ccc(C(=O)N/N=C(/C)c2ccco2)cc1 [A3.352] | 451 | 
C/C(CC1N=NC([N+](=O)[O-])=N1)=N/NC(=O)COc1ccccc1[N+](=O)[O-] (stereo not drawn) [A4.001] |  | 3.4
COc1ccc(/C=N/NC(=O)C2=C(C)Nc3ccccc3S2)cc1Cn1nc(C)c(Br)c1C [A4.002] |  | 4.8
COc1cc(Br)ccc1OCC(=O)N/N=C/c1cc(O)c(O)c(Br)c1Br [A4.003] |  | 5
CCN(CC)c1ccc(/C=C(/NC(=O)c2ccccc2)C(=O)N/N=C/c2cc(I)c(O)c(I)c2)cc1 [A4.004] |  | 5.1
O=C(N/N=C/c1cc(Cl)cc([N+](=O)[O-])c1O)c1ccccc1O [A4.005] |  | 5.8
Cc1c(Cl)cccc1NC(=O)C(=O)N/N=C/c1c(OCc2ccccc2)ccc2ccccc12 [A4.006] |  | 6.6
CCc1cccc(CC)c1NC(=S)N/N=C1\C(=O)N(CN2CC(C)CC(C)C2)c2ccccc21 (stereo not drawn) [A4.007] |  | 6.7
Cc1ccc(/C=N/NC(=O)c2cn(-c3nonc3N)nn2)o1 [A4.008] |  | 6.9
O=C(Cc1ccc(Br)c2ccccc12)N/N=C/c1ccc([N+](=O)[O-])c(O)c1 [A4.009] |  | 7
COc1cc(Br)cc(Br)c1OCC(=O)N/N=C/c1cc(O)c(O)c(Br)c1Br [A4.010] |  | 7.2
CCN(CC)c1ccc(/C=C(\NC(=O)c2ccccc2)C(=O)N/N=C/c2ccc(O)c([N+](=O)[O-])c2)cc1 [A4.011] |  | 7.6
Cc1cccc(NCC(=O)N/N=C/c2cc(Br)c(O)c(O)c2Br)c1 [A4.012] |  | 7.8

SMILES | IC50 [1] [µM] | IC50 [2] [µM]
O=C(N/N=C\c1ccco1)c1ccc(S(=O)(=O)N2CCCCCC2)cc1 [A4.013] |  | 8
Cc1ccc(/C=N/NC(=O)c2cccc(NC(=O)c3ccc(F)cc3)c2)o1 [A4.014] |  | 9.8
Cc1ccc(/C=N/NC(=O)c2cccc(Cl)c2)o1 [A4.015] |  | 10.5
Cc1ccc(/C=N/NC(=O)c2cn(-c3nonc3N)nn2)o1 [A4.016] |  | 10.9
COc1cc(Br)ccc1OCC(=O)N/N=C/C=C/c1ccco1 [A4.017] |  | 11
CC(NC(=O)C(=O)N/N=C\c1cc([N+](=O)[O-])ccc1O)c1ccccc1 (stereo not drawn) [A4.018] |  | 11.4
C/C(=N\NC(=O)CNC(=O)/C=C/c1ccco1)c1ccc2ccccc2c1 [A4.019] |  | 12
CCOc1cc(/C=N/NC(=O)CNC(=O)c2cccc(Cl)c2)ccc1OC(=O)c1cccs1 [A4.020] |  | 12.2
Cc1nc(C)c(C(=O)N/N=C/c2ccco2)s1 [A4.021] |  | 12.3
COCc1c(C(=O)N/N=C/c2ccc(C)o2)nnn1-c1nonc1N [A4.022] |  | 12.5
O=C(COc1cccc2ccccc12)N/N=C/c1ccco1 [A4.023] |  | 12.9
COc1cc(Br)cc(Br)c1OCC(=O)N/N=C/c1cc(Br)c(O)c(O)c1Br [A4.024] |  | 13.2
COC(=O)N/N=C(C)\C=C\c1ccco1 [A4.025] |  | 13.5
O=C(COc1ccc(F)cc1)N/N=C/c1ccco1 [A4.026] |  | 13.6
CCc1ccc(-c2cc(C(=O)N/N=C/c3c(C)nn(-c4ccccc4)c3C)[nH]n2)cc1 [A4.027] |  | 13.6
O=C(NN=C(/C=C/c1ccccc1)c1ccccc1)c1cc2ccccc2cc1O [A4.028] |  | 13.7
O=C(COc1ccc2ccccc2c1)N/N=C/c1ccco1 [A4.029] |  | 13.9
O=C(N/N=C/c1ccco1)c1cc(C2CC2)n[nH]1 [A4.030] |  | 14.3
O=C(N/N=C/c1ccco1)c1cc(-c2ccc(F)cc2)n[nH]1 [A4.031] |  | 14.4
N/C(=N\N=C\c1ccco1)c1nonc1N [A4.032] |  | 14.6
COc1ccc(OCC(=O)N/N=C/c2cc(Br)c(O)c(O)c2Br)c(Br)c1 [A4.033] |  | 15

SMILES | IC50 [1] [µM] | IC50 [2] [µM]
O=C(CNC(=O)C(c1ccccc1)c1ccccc1)N/N=C/c1ccco1 [A4.034] |  | 15.6
CC(C)C/C=N/NC(=O)c1ccc([N+](=O)[O-])cc1Cl [A4.035] |  | 15.6
O=C(N/N=C/C=C\c1ccco1)c1ccco1 [A4.036] |  | 16
O=C(N/N=C/c1ccco1)c1ccccc1O [A4.037] |  | 16
Cc1ccc(/C=N/NC(=O)COc2ccc(Cl)cc2)o1 [A4.038] |  | 16
CC(C)c1cc(C(=O)N/N=C/c2ccco2)[nH]n1 [A4.040] |  | 16.6
COc1ccc(/C=C(/NC(=O)c2ccccc2)C(=O)N/N=C\C=C\c2ccc(C)o2)cc1OC [A4.041] |  | 16.7
O=C(N/N=C/c1ccco1)c1ccc(O)cc1 [A4.042] |  | 16.8
COc1cc(/C=N/NC(=O)c2cc(-c3ccco3)n[nH]2)cc(OC)c1OC [A4.043] |  | 17
Cc1ccc(/C=N/NC(=O)c2ccccc2Cl)o1 [A4.044] |  | 17.7
Cc1ccc(/C=N/NC(=O)c2ccccc2OCc2ccccc2)o1 [A4.045] |  | 18.4
O=C(Nc1ccccc1C(=O)N/N=C/c1ccco1)c1ccc(Cl)cc1Cl [A4.046] |  | 18.7
Cc1ccc(/C=N/NC(=O)c2cccc(CC(=O)c3ccccc3C)c2)o1 [A4.047] |  | 18.9
Cc1cc(I)ccc1NC(=O)CCC(=O)N/N=C/c1ccco1 [A4.048] |  | 9.5
Cc1ccccc1S(=O)(=O)Nc1cccc(C(=O)N/N=C/c2ccco2)c1 [A4.049] |  | 19.2
CCCOc1ccccc1-c1c[nH]c(C(=O)N/N=C/c2ccco2)c1 [A4.051] |  | 19.5
O=C(N/N=C/c1cc(Br)cc(Br)c1OC(=O)c1ccccc1)/C(=C/c1ccc2c(c1)OCO2)NC(=O)c1ccccc1 [A4.052] |  | 19.8
COc1ccc(/C(C)=N/NC(=O)CNC(=O)/C=C\c2ccco2)cc1OC [A4.053] |  | 19.9
O=C(N/N=C/c1cc([N+](=O)[O-])ccc1O)c1ccc(O)cc1O [A4.054] |  | 20.2
CC(=O)Oc1ccc([N+](=O)[O-])cc1/C=N/NC(=O)COc1cc(C)ccc1C(C)C [A4.055] |  | 20.3
COc1cc(Br)ccc1OCC(=O)N/N=C/c1cc(Br)c(O)c(O)c1Br [A4.056] |  | 20.5

SMILES | IC50 [1] [µM] | IC50 [2] [µM]
O=C(N/N=C/c1ccco1)c1cccc(NC(=O)c2ccccc2Cl)c1 [A4.057] |  | 20.6
O=C(N/N=C/c1ccco1)c1cc(-c2ccco2)n[nH]1 [A4.058] |  | 20.9
O=C(COc1ccc2ccccc2c1)N/N=C/c1c(Br)cc(Br)c(O)c1Br [A4.059] |  | 21
COc1ccc(C(=O)N/N=C/c2cc(Br)c(C)o2)cc1 [A4.060] |  | 21.8
Cc1ccc(/C=N/NC(=O)COc2ccccc2C)o1 [A4.061] |  | 22.2
O=C(N/N=C/c1ccco1)c1ccc(=O)[nH]n1 [A4.063] |  | 22.4
O=C(N/N=C/c1ccco1)c1cccc(NC(=O)c2cccc(Br)c2)c1 [A4.064] |  | 22.4
COc1ccc(C(=O)N/N=C/c2ccco2)cc1 [A4.065] |  | 22.6
CCN(CC)c1ccc(/C=N/NC(=O)CNC(=O)/C=C/c2ccco2)cc1 [A4.066] |  | 22.8
Cc1ccc(/C=N/NC(=O)c2ccc(NC(=O)c3ccccc3C)cc2)o1 [A4.067] |  | 22.8
CC1=NNC(=O)C1CCC(=O)N/N=C\C=C\c1ccco1 (stereo not drawn) [A4.068] |  | 23
COc1cc(/C=N/NC(=O)/C(=C\c2ccc(N(C)C)cc2)NC(=O)c2ccccc2)cc([N+](=O)[O-])c1O [A4.069] |  | 23
Cc1cc(C)cc(OCC(=O)N/N=C/c2ccco2)c1 [A4.070] |  | 23.4
COc1ccc(CCCC(=O)N/N=C/c2ccco2)cc1 [A4.071] |  | 23.4
Cc1ccc(/C=N/NC(=O)c2ccc(O)cc2)o1 [A4.072] |  | 23.4
O=C(N/N=C/c1cc(Br)c(O)c(Br)c1O)/C(=C\c1ccc2c(c1)OCO2)NC(=O)c1ccccc1 [A4.073] |  | 23.6
O=C(N/N=C\c1ccco1)c1ccc(Br)cc1 [A4.074] |  | 24.5
Cc1ccc(C)n1-c1cccc(C(=O)N/N=C/c2cc(Br)c(O)c(Br)c2)c1 [A4.075] |  | 24.9
COc1cc(/C=N/NC(=O)/C(=C/c2cccs2)NC(=O)c2ccccc2)cc([N+](=O)[O-])c1O [A4.076] |  | 25.1
CCc1ccc(OCC(=O)N/N=C\c2ccco2)c([N+](=O)[O-])c1 [A4.077] |  | 25.1
O=C(N/N=C/c1cc([N+](=O)[O-])ccc1O)c1ccc(Cl)cc1 [A4.078] |  | 25.7
